Patent US11149028B2, “Methods for treating melanoma using small molecules” (NOVA SOUTHEASTERN UNIVERSITY, priority 2016, dated 2021)
“Also recorded” adds a separate entry of the source. Peptide text beside a SMILES is read from it. * marks the point of attachment. Cbz = O=C(OCc1ccccc1)*; CH2F = FC*

How the values were obtained:
WM266-4 cells [1] = assay: CellTiter-Glo cell viability assay, WM266-4 (including rescue assays); format: cell-based, human
Procedure: Cells were plated in 384-well plates in 8 μL of media. Test compounds and dabrafenib (pharmacological assay control) were prepared as 10-point, 1:3 serial dilutions starting at 300 μM, then added to the cells (4 μL per well) using the Biomek Plates were incubated for 72 h at 37° C., 5% CO2 and 95% relative humidity. After incubation, 4 μL of CellTiter-Glo® (Promega cat #: G7570) were added to each well, and incubated for 15 min at room temperature. Luminescence was recorded using a Biotek Synergy H4 multimode microplate reader. Viability was expressed as a percentage relative to wells containing media only (0%) and wells containing cells treated with DMSO only (100%). Three parameters were calculated on a per-plate basis: (a) the signal-to-background ratio (SB); (b) the coefficient for variation [CV; CV=(standard deviation/mean)×100)] for all compound test wells; and (c) the Z′-factor (18). The IC50 value of the pharmacological control (dabrafenib, LC Laboratories #G-4408) was also calculated to ascertain the assay robustness. In case of viability rescue assays, cells were pre-treated with caspase, calpain, and autophagy inhibitors for 1-3 h before addition of test compounds. Time course viability assay was done with luminescence measurements performed at 4, 24, 48, and 72 h.

calpain in WM266-4 cells = assay: Calpain activity assay (Calpain-Glo); format: cell-based, human; conditions: 25 μM inhibitor, 100 μM 2155-14
Procedure: The Calpain-Glo Protease Assay (Promega cat #) was used to measure the calpain enzyme activity in live cells, according to the manufacturer's instructions. 1,250 of WM-266-4 cells were plated in 384-well white TC-treated plates in 5 μL of serum-free EMEM media. The cells were incubated overnight at 37° C., 5% CO2 and 95% relative humidity and 5 μL of test compounds 2155-14, (100 μM), calpain inhibitor III and PD151746 (25 μM) were added alone or in combination and incubated at 37° C., 5% CO2, and 95% relative humidity for 0.5, 4, and 24 h. After incubation, 10 μL, of a freshly prepared dilution of the Calpain-Glo Reagent stock solution (consisting of Suc-LLVY-Glo™ substrate, Calpain-Glo™ buffer, Luciferin Detection Reagent, and CaCl2) was added to cells at above mentioned times and luminescence was recorded with a Neo 2 microplate reader (Biotek Inc). All experiments were performed in triplicate and the values provided are the calculated average of at least three independent experiments.

[2] = system: cleaved lamin A/C in WM266-4 cells; assay: Western blotting for lamin A/C cleavage; format: cell-based, human
Procedure: (§1) 1×10^6 of WM266-4 or M14 cells were seeded in 3 mL of E-MEM or RPMI-1640 medium supplemented with 10% FBS and 1% penicillin/streptomycin in 6 cm plates. […] After washing with TBST, the membranes were treated with chemilumiscent horseradish peroxidase detection reagent (Thermo Scientific, Cat #32209) and exposed to autoradiography film (Denville Scientific, Inc., Metuchen, N.J., USA, cat #E3018). ImageJ software (NIH, Bethesda, Md.) was used to quantify the intensity of proteins bands. The protein bands were normalized against loading controls.

[3] = system: LC3-II and beclin-1 in WM266-4 cells; assay: Western blotting for LC3 and beclin-1, WM266-4; format: cell-based, human
Procedure: as §1, with “controls (β-actin) and expressed as a fold of an untreated control.” for “controls.”

M14 cells = conditions: time course 4-72 h; time stated at the place
Procedure: ApoTox-Glo™ Triplex Assay which allows one to simultaneously assess the effect of small molecules on cell viability, toxicity, caspase activity, and cell cycle all in the same well (Niles, A. L.; Moravec, R. A.; Riss, T. L. In vitro viability and cytotoxicity testing and same-well multi-parametric combinations for high throughput screening. Curr Chem Genomics 2009, 3, 33-41) was utilized. First, a mixture of 2 fluorogenic substrates was added to cells. GF-AFC substrate is cell-permeant and non-lytic to cells, allowing the measurement of active protease inside live cells. The second substrate (bis-AAF-R110 Substrate) is not cell-permeable and is only cleaved when proteases are released from cells due to the loss of membrane integrity typical of cell death. This step generates an inversely correlated measurement of cell viability and toxicity.
The second addition is luminogenic DEVD-peptide substrate for caspase-3/7 and Ultra-Glo™ Recombinant Thermostable Luciferase. Caspase-3/7 cleavage of the substrate generates a luminescent signal which correlates with caspase-3/7 activation as a key indicator of apoptosis. As markers for cytotoxicity and apoptosis are transient, the assay was conducted in time course format with time points at 4, 24, 48, and 72 h.
M14 #5 cells were plated in 384-well format at a density of 1,250 cells in 5 μL of serum-free DMEM media and incubated at 37° C. in 5% CO2 for 4 h. Control and test compounds were serially diluted in a ratio of 1:3 and added to wells in 4 μL. […] Plates were incubated at 37° C. in 5% CO2 for 4, 24, 48, and 72 h. At the end of each time point Viability/Cytotoxicity™ Reagent was prepared containing 400 μM glycylphenylalanyl-aminofluorocoumarin (GF-AFC) substrate (cleavable by live cell proteases) and 400 μM bis-alanylalanyl-phenylalanyl-rhodamine 110 (bis-AAF-R110) substrate (cleavable by dead cell proteases). 4 μL of the Viability/Cytotoxicity™ Reagent was used per well. The plate was incubated for 30 min at 37° C. Fluorescence was read at λEx=400 nm and λEm=505 nm for GF-AFC and λEx=485 nm and λEm=520 nm for bis-AAF-R110 on the BioTek Synergy™ 4 Multi-Mode Microplate Reader. Caspase-Glo® 3/7 Reagent was then added in 12 μL volume. The plate was incubated for 30 min at room temperature and luminescence was measured on the BioTek Synergy™ 4 Multi-Mode Microplate Reader.

WM266-4 cells [4] = assay: Annexin V flow cytometry assay; format: cell-based, human; conditions: 4 h
Text: After 4, 24 and 48 hrs of compound exposure the adherent and floating cells were combined and stained using the TACS Annexin V-FITC Apoptosis detection kit (Trevigen Inc, Gaithersburg, Md., USA) using manufacturer's protocol. Viable, necrotic, early and late apoptotic cells were counted using Accuri flow cytometer as per the manufacturer instructions.

[5] = 10 μM inhibitor 3 h, then 100 μM 2155-14, 24 h
[6] = 50 μM inhibitor, then 100 μM 2155-14
[7] = cells treated with 100 μM 2155-14, inhibitor 10 μM

Compound: O=C(O)/C(S)=C/c1c[nH]c2ccc(F)cc12 [PD151746, reference compound]
- cell viability restored in presence of 2155-14 (WM266-4 cells [1]; 24 h, 25 μM inhibitor, 100 μM 2155-14): ~75%
- cell viability restored in presence of 2155-14 (WM266-4 cells [1]; 48 h, 25 μM inhibitor, 100 μM 2155-14): ~50%
- cell viability in presence of 2155-14 (WM266-4 cells [1]; 72 h, 25 μM inhibitor, 100 μM 2155-14): all cells were dead
- calpain activity induced by 2155-14 after calpain inhibitor pre-treatment (calpain in WM266-4 cells): shut down calpain activity induced by 2155-14 at 30 min and 4 h but not at 24 h

Compound: COC(=O)C[C@H](NC(=O)[C@H](C)NC(=O)[C@@H](NC(=O)OCc1ccccc1)C(C)C)C(=O)CF [pan-caspase inhibitor, Z-VAD-FMK, reference compound] (Cbz-Val-Ala-Asp(OMe)-CH2F)
- lamin A/C cleavage after caspase inhibitor pre-treatment [2, 5]: Only partial inhibition of lamin A/C cleavage
- lamin A/C cleavage after caspase inhibitor pre-treatment [2, 6]: almost completely abrogated

Compound: CCN(CCO)CCCC(C)Nc1ccnc2cc(Cl)ccc12 (centres unmarked) [hydroxychloroquine, reference compound]
- LC3-II level after autophagy inhibitor pretreatment [3, 7]: increased levels
- cleaved lamin A/C level after autophagy inhibitor pretreatment [2, 7]: increased levels

Compound: O=C(CCCC[C@@H]1SC[C@@H]2NC(=O)N[C@@H]21)NCCCC[C@@H](CN1CCC[C@H]1CN1C(=O)C(=O)NC[C@@H]1Cc1ccccc1)N1C[C@H](Cc2ccc(O)cc2)N(CCc2ccccc2)C(=O)C1=O [Compound 2529-5, N—((S)-6-((S)-2-(((S)-6-benzyl-2,3-dioxopiperazin-1-yl)methyl)pyrrolidin-1-yl)-5-((S)-5-(4-hydroxybenzyl)-2,3-dioxo-4-phenethylpiperazin-1-yl)hexyl)-5-((3aS,4S,6aR)-2-oxohexahydro-1H-thieno[3,4-d]imidazol-4-yl)pentanamide]
- IC50 (WM266-4 cells [1]; Homo sapiens, WM 266-4, 72 h, 72 h): > 100 µM
- cytotoxicity at 100 µM (WM266-4 cells [1]; Homo sapiens, WM 266-4, 100 μM, 72 h, read-out: maximal inhibition of cell viability): 37%
- LC3-II level ([3]; 100 μM, 24 h): did not significantly increase
- cleaved lamin A/C level ([2]; 100 μM, 24 h): did not significantly increase; also recorded: had no effect on cleavage of lamin A/C

Compound: MDL-28170 [reference compound]
- viability, combination with 2155-14 (WM266-4 cells [1]; 25 μM inhibitor, 100 μM 2155-14): even more pronounced negative effect on viability of cells than either compound alone
- calpain activity induced by 2155-14 after calpain inhibitor pre-treatment (calpain in WM266-4 cells): shut down calpain activity induced by 2155-14 at 30 min and 4 h but not at 24 h

Compound: CC[C@H](C)[C@H](NC(=O)[C@H](CCC(=O)OC)NC(=O)[C@@H](NC(=O)OCc1ccccc1)C(C)C)C(=O)N[C@@H](CC(=O)OC)C(=O)CF [caspase 6 inhibitor, Z-VEID-FMK, reference compound] (Cbz-VE(OMe)ID(OMe)-CH2F)
- lamin A/C cleavage after caspase inhibitor pre-treatment [2, 5]: Only partial inhibition of lamin A/C cleavage
- lamin A/C cleavage after caspase inhibitor pre-treatment [2, 6]: almost completely abrogated

Compound: CC[C@H](C)[C@H](NC(=O)OCc1ccccc1)C(=O)N[C@@H](CCC(=O)OC)C(=O)N[C@H](C(=O)N[C@@H](CC(=O)OC)C(=O)CF)[C@@H](C)O [caspase 8 inhibitor, Z-IETD-FMK, reference compound] (Cbz-IE(OMe)TD(OMe)-CH2F)
- lamin A/C cleavage after caspase inhibitor pre-treatment [2, 5]: Only partial inhibition of lamin A/C cleavage
- lamin A/C cleavage after caspase inhibitor pre-treatment [2, 6]: almost completely abrogated

Compound: CC(C)(C)c1ccc(C(O)CCCN2CCC(C(O)(c3ccccc3)c3ccccc3)CC2)cc1 (centres unmarked) [terfenadine, reference compound]
- ApoTox caspase-3/7 activity (M14 cells): early caspase activity spike (4-24 h)
- ApoTox viability (live cell protease) (M14 cells): early loss of cell viability

Compound: COC(=O)C[C@H](NC(=O)[C@H](C)NC(=O)[C@@H](NC(=O)[C@H](CC(=O)OC)NC(=O)[C@@H](NC(=O)OCc1ccccc1)C(C)C)C(C)C)C(=O)CF [caspase 2 inhibitor, Z-VDVAD-FMK, reference compound] (Cbz-VD(OMe)VAD(OMe)-CH2F)
- lamin A/C cleavage after caspase inhibitor pre-treatment [2, 6]: to the lesser extent

Compound: CN[C@@H]1C[C@H]2O[C@@](C)([C@@H]1OC)n1c3ccccc3c3c4c(c5c6ccccc6n2c5c31)C(=O)NC4 [staurosporine, reference compound]
- apoptosis detected (WM266-4 cells [4]): apoptosis was detected only in staurosporine-treated cells

Compound: C[C@H](CCC(=O)O)C[C@H](C)C[C@H](C)C(=O)/C=C(\O)[C@H](C)C[C@H](C)C/C=C/[C@@H](C)[C@@H](O)[C@@H](C)[C@@H](O)C[C@@H]1CC[C@@](C)([C@H]2CC[C@@](C)([C@@H](C)O)O2)O1 [ionomycin, reference compound]
- ApoTox caspase-3/7 activity (M14 cells): did not induce a spike in caspase activity at any of the time points
- ApoTox cytotoxicity (M14 cells): strong cytotoxicity response
- ApoTox viability (live cell protease) (M14 cells): dose dependent loss of viability as early as 4 h

Compound: CN(C)c1cccc2c(S(=O)(=O)NCCCC[C@@H](CN3CCC[C@H]3CN3C(=O)C(=O)NC[C@@H]3Cc3ccccc3)N3C[C@H](Cc4ccc(O)cc4)N(CCc4ccccc4)C(=O)C3=O)cccc12 [Compound 2476-66.2, N—((S)-6-((S)-2-(((S)-6-benzyl-2,3-dioxopiperazin-1-yl)methyl)pyrrolidin-1-yl)-5-((S)-5-(4-hydroxybenzyl)-2,3-dioxo-4-phenethylpiperazin-1-yl)hexyl)-5-(dimethylamino)naphthalene-1-sulfonamide]
- LC3-II level ([3]; 2.5 μM, 24 hr): no cleavage of lamin A/C or increase of levels of LC3-II was detected
- LC3 western blot ([3]; 5 μM, 24 hr): neither of LC3 isoforms nor actin were detected
- lamin A/C cleavage ([2]; 2.5 μM, 24 hr): no cleavage of lamin A/C
- lamin A/C western blot ([2]; 5 μM, 24 hr): striking increase of cleaved lamin A/C
